This is an account of results in patent US4265882A, “Sulphur analogs of penicillins having a nucleophile substituted in the 6 and 7 position, respectively” (Massachusetts Institute of Technology, priority 1977, dated 1981).

Where only a bound is given, the exact number is not on record here.

Experiment [1] relates to Bacillus subtillis ATCC 6051. Nature of the experiment: Minimum inhibitory concentration in vitro, Bacillus subtillis. The experiment is classed as cell-based. Details: unit not given here. Particulars: free acids tested after removal of ester protective group. Here is the method:
(§1) General Procedure for Removing Protective Groups
(§2) The ester (100-200 mg) is dissolved in approx. 10 ml of 90% HOAc and the solution cooled to 0° before 1-1.5 g of zinc dust is added. The mixture is stirred at 0° for 3-5 hr. Removal of the zinc by filtration through celite into a flask containing 100 ml of ice-H2 O and washing the zinc with methylene chloride (50 ml) yielded a two-phase system. Separation of the organic layer, extraction of the aqueous layer with several methylene chloride-zinc washings, drying (MgSO4) and removal of the solvent under reduced pressure (no heat) afforded the free acid.
(§3) For purification (if required) the acid was dissolved in CH2 Cl2 and extracted with aqueous NaHCO3. The aqueous layer, after being extracted several times with CH2 Cl2, was cooled with ice and acidified with dilute HCl. Extraction with CH2 Cl2, drying (MgSO4) and removal of the solvent under reduced pressure (no heat) gave the pure acid.
(§4) A flask, charged with the ester, is submerged in an ice bath 5-10 min. before cold trifluoroacetic acid is added. The solution is stirred at 0° for 30-45 min. and then the solvent removed by distillation under reduced pressure (2-3 mm) with the reaction flask still submerged in the ice bath. The residue is freeze dried from benzene.
If purification is required, it is done in the same manner as described for removal of the trichloroethyl group (see above).
The benzhydryl group is removed in the same manner as described for the removal of the t-butyl group, above. After freeze drying the residue was purified in the following manner. The acid was dissolved in methylene chloride and extracted with aqueous NaHCO3. The aqueous layer, after being extracted several times with methylene chloride, was partitioned with methylene chloride, cooled with ice, and acidified with dilute HCl. Extraction with methylene chloride, drying (MgSO4), and removal of the solvent under reduced pressure (no heat) gave the pure acid.
In order to remove the protective benzyhydryl group from benzyhydryl-6β-(triophene-2-acetylthio)-6α-methoxypenicillanate, the following procedure was found necessary. The ester (70-80 mg) is dissolved in 10 ml of CH2 Cl2 and the solution cooled to -77° (CO2 -acetone) before the addition of 0.5 ml of trifluoroacetic acid. The solution was warmed to approximately -10° (NaCl-H2 O-ice) and stirred at that temperature for 5-6 hr. The solution was cooled to -77° and 75-100 ml of benzene added. After the contents of the flask solidified the acid was isolated by freeze drying and bioassayed without purification.
The protective groups of the penicillin and cephalosporin esters were removed as described above and the resulting free acids were tested in vitro for bioactivity.

The test system of another experiment is Sarcina lutea. The experiment is described as follows: Minimum inhibitory concentration in vitro, Sarcina lutea. The conditions noted are these: free acids tested after removal of ester protective group. The experiment is classed as cell-based. Here is the method:
as §1, §2, §3, §4
(§5) If purification is required, it is done in the same manner as described for removal of the trichloroethyl group (see above). […]

Experiment [2] has as its system Staphylococcus aerus (Roche). The experiment is described as follows: Minimum inhibitory concentration in vitro, Staphylococcus aerus (Roche). Type of experiment: cell-based. Details: unit not given here. Particulars: free acids tested after removal of ester protective group. Here is the method: as §1, §2, §3, §4, §5
For experiment [3], the system named is certain Gram-negative organisms. Particulars: background; cited from earlier work.
Experiment [4] deals with certain resistant staphylococci. Particulars: background; cited from earlier work.
The conditions of experiment [5]: literature; cited from earlier work.

Turning to `COC(=O)SC1(OC)C(=O)N2C(C(=O)OC(C)(C)C)=C(COC(C)=O)CSC21` (stereo not drawn) [t-Butyl 7β-(methoxycarbothio)-7α-methoxycephalosporanate], the “Minimum Inhibitory Concentration” value came to 50 in experiment [1], 25 mg/mL with Sarcina lutea and 50 in experiment [2].

As to `COC1(SC(=O)OCC(Cl)(Cl)Cl)C(=O)N2C(C(=O)OC(c3ccccc3)c3ccccc3)C(C)(C)SC21` (stereo not drawn) [Benzhydryl 6β-(β,β,β-trichloroethoxycarbothio)6α-methoxypenicillanate], the “Minimum Inhibitory Concentration” value in experiment [1] was 100.

Consider `CC1(C)S[C@@H]2[C@H](NC(=O)C(C(=O)O)c3ccccc3)C(=O)N2[C@H]1C(=O)O` (some centres unmarked) [carbenicillin], for which the “broadened spectra of activity, Gram-negative organisms” value in experiment [3] was “broadened the spectra to activity to include use against certain Gram-negative organisms”.

For `CC1(C)S[C@@H]2[C@H](NC(=O)[C@H](N)c3ccccc3)C(=O)N2[C@H]1C(=O)O` [ampicillin], the “broadened spectra of activity, Gram-negative organisms” value in experiment [3] is “broadened the spectra to activity to include use against certain Gram-negative organisms”.

Consider `COC1(SC(=O)Cc2cccs2)C(=O)N2C(C(=O)OC(C)(C)C)=C(COC(C)=O)CSC21` (stereo not drawn) [tert-Butyl 7β-(thiophene-2-acetylthio)-7α-methoxycephalosporanate], for which, in experiment [1], the “Minimum Inhibitory Concentration” value worked out at 50.

Turning to `COc1cccc(OC)c1C(=O)N[C@@H]1C(=O)N2[C@@H]1SC(C)(C)[C@@H]2C(=O)O` [methicillin], the “activity against certain resistant staphylococci” value in experiment [4] is listed as “good activity”.

As to `COC1(SC(=O)Cc2ccccc2)C(=O)N2C(C(=O)OC(C)(C)C)=C(COC(C)=O)CSC21` (stereo not drawn) [tert-Butyl 7β-(phenylacetylthio)-7α-methoxycephalosporanate], the “Minimum Inhibitory Concentration” value in experiment [1] is less than 6.25; with Sarcina lutea it was 100 mg/mL.

For `CC1(C)S[C@@H]2[C@@H](OC(=O)COc3ccccc3)C(=O)N2[C@H]1C(=O)O` [6α-phenoxyacetoxypenicillanic acid], the biological activity entry in experiment [5] was “exhibits no biological activity”.
